Results as given in patent publication US12560591B2, “Methods of treatment with CD8 T cell-mediated immune therapy” (Providence Health & Services—Oregon, priority 2019, dated 2026).

Tested on: peripheral blood CXCR3^+CD45^+CD3^+CD4^− T cells
Assay: Clinical trial NCT02688712: peripheral blood CXCR3 flow cytometry, baseline vs day 15
Type: in vivo, human
Conditions: rectal cancer patients, after two weeks of LY2157299, majority of patients, FIG. 12C
Source text: FIGS. 12A-12E are a series of panels showing TGFβ-mediated suppression of CXCR3-dependent CD8^+ T cell chemotaxis is relieved by LY2157299 in human patients with rectal cancer. […] FIG. 12B illustrates the clinical trial schema for a phase II clinical trial of rectal cancer patients and sample collection intervals. Patients receive two cycles of LY2157299 on days 1-14 and again on days 30-43 while receiving standard of care chemoradiation on days 15-57 prior to surgery. […] Patients are grouped by nodal status following neoadjuvant treatment (ypN). On the right, percent change in frequency of CXCR3^+CD3^+CD4^− T cells between days 1 and 15 is shown versus the neoadjuvant rectal (NAR) score. […] Each patient is shown (thin gray lines) along with the mean of all patients (thick black line). […] Error bars in each subpanel are standard deviations.
Clinical trial analysis: Patients enrolled in clinical trial NCT02688712 provided consent prior to tissue collection as designed and approved in PHS IRB #15-050. […] Pathological assessment for neoadjuvant treatment response was evaluated in the surgical resection specimen including excised lymph nodes. Neoadjuvant rectal (NAR) score was calculated by the published, validated formula (George et al, Curr. Colorectal Cancer Rep. 11: 275-280): [5*ypN−3(cT−ypT)+12]^2/9.61. […]

**Q.** Which “peripheral blood CXCR3 expression, change day 0 to day 15” value does the source give for `Cc1cccc(-c2nn3c(c2-c2ccnc4ccc(C(N)=O)cc24)CCC3)n1` [LY2157299] here?
**A.** decrease in peripheral blood CXCR3 expression
